This note sets out measurements from patent publication US20090221559A1 (priority 2005, published 2009).

What is called IC50 is the point on the concentration scale where inhibition reaches its midpoint. A low value points to greater potency. One may read the EC50 as the midpoint of the concentration-response curve.

In experiment [1] the target is T1, HCV NS5B polymerase (His-tagged, C-terminal 21 amino acid deleted NS5B, HC-J4) (Hepatitis C virus genotype 1b, UniProt O92972).
T1 construct: The cDNA encoding NS5B amino acid 1-570 (HC-J4, genotype 1b); His tag (His6, from pET-21b) (C); made in house; host or cells: E. coli BL21 (DE3)
T1 sequence (O92972 2417-3000, looked up, stated change not applied): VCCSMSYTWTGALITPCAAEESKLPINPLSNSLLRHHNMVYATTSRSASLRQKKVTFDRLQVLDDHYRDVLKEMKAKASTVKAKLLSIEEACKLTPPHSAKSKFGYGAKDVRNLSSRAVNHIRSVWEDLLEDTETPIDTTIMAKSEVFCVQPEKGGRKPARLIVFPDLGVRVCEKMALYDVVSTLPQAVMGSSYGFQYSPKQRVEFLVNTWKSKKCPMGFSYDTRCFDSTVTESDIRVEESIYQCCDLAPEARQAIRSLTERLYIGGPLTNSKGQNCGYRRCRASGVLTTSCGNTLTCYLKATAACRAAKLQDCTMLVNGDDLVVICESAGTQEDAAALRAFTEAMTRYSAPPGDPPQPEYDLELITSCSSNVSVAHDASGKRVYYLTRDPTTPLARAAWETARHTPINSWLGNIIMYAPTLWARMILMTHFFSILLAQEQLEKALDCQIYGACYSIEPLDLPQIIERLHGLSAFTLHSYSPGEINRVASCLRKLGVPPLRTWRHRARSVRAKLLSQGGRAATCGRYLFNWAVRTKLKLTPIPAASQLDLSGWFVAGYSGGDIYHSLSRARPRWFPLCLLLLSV
Put plainly: NS5b polymerase assay (biochemical RdRp assay, 3H-GTP incorporation, SPA beads). Also noted: species or system HCV genotype 1b. The settings on record: NS5B Polymerase Assay IC50 (μM). Put shortly:
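His-tagged C-terminal-21-aa-deleted NS5B (genotype 1b, HC-J4) at 200 nM was preincubated 15 min at RT with compound on 5′-biotinylated oligo(rG13)/poly(rC) template/primer before NTPs. Reaction with 600 nM GTP plus 0.1 μCi 3H-GTP and 5 mM MgCl2 in Tris pH 7.5 ran 2 h at 25 °C. Stopped with EDTA/SPA beads for incorporation counting.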

Experiment [2] concerns HCV replicon RNA replication in Huh-7 luc/neo (Huh-Luc) cells. Put plainly: HCV replicon assay (stable replicon cell reporter assay, luciferase read-out). The conditions noted are these: Hepatitis C virus, Huh-7, 72 h, read-out: Replicon Assay EC50 (μM), Huh-Luc cells, incubation of three days, luciferase activity. It is filed as cell-based, HCV type 1b. Summed up: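 Huh-7 cells stably carry a bicistronic HCV 1b NS3-NS5B subgenomic replicon with firefly luciferase and neo markers. Cells were plated with compound across a concentration range and incubated three days. Replication was measured as luciferase activity to give dose-response curves.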

The compound `CCOc1cc(C2Nc3ccccc3NC3=C2C(=O)CC(c2ccc(OC)c(OC)c2)C3)cc(Br)c1O` (stereo not shown) [compound 399] returned an IC50 in experiment [1] greater than 42.7 µM. In experiment [2], the EC50 was 19.4 µM.

Turning to `COc1ccc(C2CC(=O)C3=C(C2)Nc2ccccc2NC3c2cc(OC)c(OC)cc2Br)cc1` (stereo not shown) [compound 400], the IC50 in experiment [1] was greater than 42.7 µM. For the same compound, the EC50 in experiment [2] was found to be 3.28 µM.

Regarding `COc1ccc(C2CC(=O)C3=C(C2)Nc2ccccc2NC3c2cccc(OC)c2OC)cc1OC` (stereo not shown) [compound 401], the half-maximal inhibitory concentration (IC50) in experiment [1] is greater than 42.7 µM. In addition, the EC50 in experiment [2] worked out at 2.88 µM.

Turning to `COc1ccc(C2CC(=O)C3=C(C2)Nc2ccccc2NC3c2cc(Br)c(OC)c(OC)c2)cc1` (stereo not shown) [compound 402], the IC50 in experiment [1] is greater than 42.7 µM. Further, the EC50 in experiment [2] stood at 8.59 µM.

For the compound `COc1ccc(C2CC(=O)C3=C(C2)Nc2ccccc2NC3c2cc(OC)c(OC)cc2OC)cc1OC` (stereo not shown) [compound 403], the IC50 in experiment [1] is greater than 42.7 µM. The EC50 in experiment [2] was found to be 7.12 µM.

In experiment [1], `COc1ccc(C2CC(=O)C3=C(C2)Nc2ccccc2NC3c2cc(Br)ccc2OC)cc1OC` (stereo not shown) [compound 404] showed an IC50 greater than 42.7 µM. For the same compound, the EC50 in experiment [2] stood at 3.24 µM.

`COc1ccc(C2CC(=O)C3=C(C2)Nc2ccccc2NC3c2ccc(OCc3ccccc3)c(OC)c2)cc1OC` (stereo not shown) [compound 405] displayed a 50% inhibitory concentration (IC50) in experiment [1] greater than 42.7 µM. In experiment [2], the EC50 worked out at 5.34 µM.

As to `CCOc1cc(C2Nc3ccccc3NC3=C2C(=O)CC(c2ccc(OC)cc2)C3)cc(Br)c1OC` (stereo not shown) [compound 406], the 50% inhibitory concentration (IC50) in experiment [1] was greater than 42.7 µM. The concentration giving a half-maximal response (EC50) in experiment [2] was determined as 7.29 µM.

In experiment [1], `O=C1CC(c2ccccc2)CC2=C1C(c1ccccc1C(F)(F)F)Nc1ccccc1N2` (stereo not shown) [compound 407] yielded an IC50 greater than 33.3 µM. Besides, in experiment [2], the EC50 amounted to 15.6 µM.

For `Cc1ccc(C2CC(=O)C3=C(C2)Nc2ccccc2NC3c2ccc(C)cc2)cc1` (stereo not shown) [compound 408], in experiment [1], the IC50 was greater than 33.3 µM. Further, the EC50 in experiment [2] was found to be 14.2 µM.

In experiment [1], `Cc1ccc(C2Nc3ccccc3NC3=C2C(=O)CC(c2ccc(Cl)cc2)C3)cc1` (stereo not shown) [compound 409] yielded an IC50 greater than 33.3 µM. Besides, the EC50 in experiment [2] came out at 14.9 µM.

In experiment [1], `CCOc1cccc(C2Nc3ccccc3NC3=C2C(=O)CC(c2ccccc2)C3)c1` (stereo not shown) [compound 410] gave an IC50 greater than 33.3 µM. Moreover, the EC50 in experiment [2] was found to be 22.6 µM.

Compound `Cc1ccc(C2CC(=O)C3=C(C2)Nc2ccccc2NC3c2ccccc2Cl)cc1` (stereo not shown) [compound 411] returned an IC50 in experiment [1] greater than 33.3 µM. For the same compound, the EC50 in experiment [2] was determined as 17.9 µM.

`Cc1ccc(C2CC(=O)C3=C(C2)Nc2ccccc2NC3c2ccccc2F)cc1` (stereo not shown) [compound 412]: the IC50 in experiment [1] is greater than 33.3 µM. In experiment [2], the EC50 was 16.7 µM.

For the compound `O=C1CC(c2ccco2)CC2=C1C(c1ccc(Cl)cc1)Nc1ccccc1N2` (stereo not shown) [compound 413], in experiment [1], the half-inhibitory concentration (IC50) is greater than 33.3 µM. Moreover, in experiment [2], the half-maximal effective concentration (EC50) stood at 12 µM.

Regarding `Cc1ccc(C2CC(=O)C3=C(C2)Nc2ccccc2NC3c2ccccc2)cc1` (stereo not shown) [compound 414], in experiment [1], the IC50 was greater than 33.3 µM. In experiment [2], the EC50 came out at 13.6 µM.

Consider `COc1ccc(C2CC(=O)C3=C(C2)Nc2ccccc2NC3c2ccc(Cl)cc2)cc1OC` (stereo not shown) [compound 415], for which the IC50 in experiment [1] is greater than 33.3 µM. The EC50 in experiment [2] was found to be 14.7 µM.

As to `COc1ccc(C2CC(=O)C3=C(C2)Nc2ccccc2NC3c2ccc(Cl)cc2)cc1` (stereo not shown) [compound 416], the IC50 in experiment [1] is greater than 33.3 µM. Besides, the EC50 in experiment [2] is 11.2 µM.

Turning to `O=C1CCCC2=C1C(c1ccc(Cl)cc1Cl)Nc1ccccc1N2` (stereo not shown) [compound 421], the IC50 in experiment [1] is greater than 133 µM. Further, the EC50 in experiment [2] stood at 51.9 µM.

Regarding `CC1CC(=O)C2=C(C1)Nc1ccccc1NC2c1ccc(Cl)cc1Cl` (stereo not shown) [compound 422, 11-(2,4-dichlorophenyl)-3-methyl-2,3,4,5,10,11-hexahydro-1H-dibenzo[b,e][1,4]diazepin-1-one], the IC50 in experiment [1] was greater than 133 µM. The EC50 in experiment [2] is greater than 100 µM.

In experiment [1], `CC1(C)CC(=O)C2=C(C1)Nc1ccccc1NC2c1ccc(Cl)cc1Cl` (stereo not shown) [compound 423, 11-(2,4-dichlorophenyl)-2,3,4,5,10,11-hexahydro-3,3-dimethyl-1H-dibenzo[b,e][1,4]diazepin-1-one] came in with an IC50 of 37.9 µM. In addition, the EC50 in experiment [2] stood at 26.4 µM.

In the case of `COc1ccc(C2Nc3ccccc3NC3=C2C(=O)CC(C)(C)C3)cc1OCc1ccccc1` (stereo not shown) [compound 424], it took 11.6 µM to reach half-maximal inhibition in experiment [1] (IC50). Also, the EC50 in experiment [2] was determined as 12.5 µM.

Compound `CC1(C)CC(=O)C2=C(C1)Nc1ccccc1NC2c1ccccc1OCc1ccccc1` (stereo not shown) [compound 425] yielded an IC50 in experiment [1] greater than 42.7 µM. Further, the EC50 in experiment [2] amounted to 13.2 µM.

The compound `CC1(C)CC(=O)C2=C(C1)Nc1ccccc1NC2c1ccc(OCc2ccccc2)cc1` (stereo not shown) [compound 426] returned an IC50 in experiment [1] of 30.8 µM. For the same compound, the EC50 in experiment [2] is 7.31 µM.

With `CC1(C)CC(=O)C2=C(C1)Nc1ccccc1NC2c1cccc(Cl)c1Cl` (stereo not shown) [compound 427], the IC50 in experiment [1] is greater than 42.7 µM. In addition, the EC50 in experiment [2] amounted to 20.7 µM.

Turning to `CC1(C)CC(=O)C2=C(C1)Nc1ccccc1NC2c1c(F)cccc1Cl` (stereo not shown) [compound 428], the IC50 in experiment [1] was greater than 42.7 µM. Further, the concentration for a half-maximal effect (EC50) in experiment [2] was determined as 16 µM.

`CC1(C)CC(=O)C2=C(C1)Nc1ccccc1NC2c1ccc(C(F)(F)F)cc1` (stereo not shown) [compound 429] returned an IC50 in experiment [1] greater than 42.7 µM. Also, the EC50 in experiment [2] was greater than 31 µM.

`COc1ccc(C2Nc3ccccc3NC3=C2C(=O)CC(C)(C)C3)cc1COc1ccc(F)cc1F` (stereo not shown) [compound 430] yielded an IC50 in experiment [1] greater than 33.3 µM. Moreover, the EC50 in experiment [2] is 10.8 µM.

The compound `CC1(C)CC(=O)C2=C(C1)Nc1ccccc1NC2c1cccc(OC(=O)c2ccc(Cl)cc2)c1` (stereo not shown) [compound 431, 11-[3-(4-Chlorobenzoyloxy)phenyl]-3,3-dimethyl-2,3,4,5,10,11-hexahydro-dibenzo[b,e][1,4]diazepin-1-one] returned an IC50 in experiment [1] of 82.9 µM. Moreover, the EC50 in experiment [2] is greater than 100 µM.

For `CC1(C)CC(=O)C2=C(C1)Nc1ccccc1NC2c1ccccc1C(=O)O` (stereo not shown) [compound 432], the IC50 in experiment [1] was greater than 42.7 µM. Further, in experiment [2], the EC50 was 17.7 µM.

`CC1(C)CC(=O)C2=C(C1)Nc1ccccc1NC2c1cccc(Oc2ccccc2)c1` (stereo not shown) [compound 433, 11-(3-phenoxyphenyl)-3,3-dimethyl-2,3,4,5,10,11-hexahydro-1H-dibenzo[b,e][1,4]diazepin-1-one] registered an IC50 in experiment [1] greater than 133 µM. In experiment [2], the EC50 came to 3.81 µM.

For `CC1(C)CC(=O)C2=C(C1)Nc1ccccc1NC2c1ccc(OC(F)(F)F)cc1` (stereo not shown) [compound 434, 11-(4-trifluoromethyloxyphenyl)-3,3-dimethyl-2,3,4,5,10,11-hexahydro-1H-dibenzo[b,e][1,4]diazepin-1-one], the IC50 in experiment [1] was greater than 133 µM. Also, in experiment [2], the EC50 stood at 22.9 µM.

With `CC1(C)CC(=O)C2=C(C1)Nc1ccccc1NC2c1ccc(Oc2ccccc2)cc1` (stereo not shown) [compound 435, 11-(4-phenoxyphenyl)-3,3-dimethyl-2,3,4,5,10,11-hexahydro-1H-dibenzo[b,e][1,4]diazepin-1-one], the IC50 in experiment [1] is greater than 133 µM. The EC50 in experiment [2] is 6.7 µM.

As for `CC1(C)CC(=O)C2=C(C1)Nc1ccccc1NC2c1cc(Cl)cc(Cl)c1` (stereo not shown) [compound 436, 11-[3,5-dichlorophenyl]-3,3-dimethyl-2,3,4,5,10,11-hexahydro-1H-dibenzo[b,e][1,4]diazepin-1-one], in experiment [1], the half-inhibitory concentration (IC50) was greater than 133 µM. In addition, the EC50 in experiment [2] came to 19.7 µM.

Regarding `CC1(C)CC(=O)C2=C(C1)Nc1ccccc1NC2c1cccc(OCc2ccccc2)c1` (stereo not shown) [compound 437, 11-(3-benzyloxyphenyl)-3,3-dimethyl-2,3,4,5,10,11-hexahydro-1H-dibenzo[b,e][1,4]diazepin-1-one], half-maximal inhibition in experiment [1] (IC50) required 32.9 µM. Also, the EC50 in experiment [2] stood at 6.35 µM.

For `CC1(C)CC(=O)C2=C(C1)Nc1ccccc1NC2c1cc(Cl)ccc1Cl` (stereo not shown) [compound 438, 11-[2,5-dichlorophenyl]-3,3-dimethyl-2,3,4,5,10,11-hexahydro-1H-dibenzo[b,e][1,4]diazepin-1-one], the IC50 in experiment [1] is greater than 133 µM. The EC50 in experiment [2] is 15.4 µM.

`CC1(C)CC(=O)C2=C(C1)Nc1ccccc1NC2c1ccc(OCc2ccccc2)c(Cl)c1` (stereo not shown) [compound 439, 11-[4-benzyloxy-3-chlorophenyl]-3,3-dimethyl-2,3,4,5,10,11-hexahydro-1H-dibenzo[b,e][1,4]diazepin-1-one] came in with a half-inhibitory concentration (IC50) in experiment [1] of 3.63 µM. Moreover, the EC50 in experiment [2] is 4.33 µM.

Compound `CC1(C)CC(=O)C2=C(C1)Nc1ccccc1NC2c1ccc(O)cc1` (stereo not shown) [compound 440, 3,3-dimethyl-11-(4-hydroxyphenyl)-2,3,4,5,10,11-hexahydro-1H-dibenzo[b,e][1,4]diazepin-1-one] returned an IC50 in experiment [1] greater than 133 µM. Moreover, the concentration for a half-maximal effect (EC50) in experiment [2] is greater than 100 µM.

As to `CC1(C)CC(=O)C2=C(C1)Nc1ccccc1NC2c1ccc(F)cc1F` (stereo not shown) [compound 441, 11-(2,4-difluorophenyl)-3,3-dimethyl-2,3,4,5,10,11-hexahydro-1H-dibenzo[b,e][1,4]diazepin-1-one], the IC50 in experiment [1] was greater than 133 µM. For the same compound, the EC50 in experiment [2] is greater than 100 µM.

Compound `CC1(C)CC(=O)C2=C(C1)Nc1ccccc1NC2c1ccc(Oc2ccccc2Br)cc1` (stereo not shown) [compound 442, 11-[4-(2-bromophenoxy)phenyl]-3,3-dimethyl-2,3,4,5,10,11-hexahydro-1H-dibenzo[b,e][1,4]diazepin-1-one] yielded an IC50 in experiment [1] greater than 133 µM. Besides, the concentration giving a half-maximal response (EC50) in experiment [2] was determined as 2.71 µM.

On to `CC1(C)CC(=O)C2=C(C1)Nc1ccccc1NC2c1ccc(OCc2ccccc2)cc1Cl` (stereo not shown) [compound 443], for which, in experiment [1], half-maximal inhibition (IC50) was put at 0.312 µM. In addition, the EC50 in experiment [2] was 1.78 µM.
